{"source": "patent US20050144659A1", "about": "“Animals and cells containing a mutated alpha2delta gene” (priority 2003, published 2005)", "key": {"[1]": {"system": "R217A mutant lines and background mouse strains", "experiment": "Maximal electroshock procedure (MES)", "assay_type": "in vivo", "conditions": "for responsiveness to anticonvulsant effects: all background strains, mutant, heterozygous mutant and wildtype (all lines)", "protocol": "Anticonvulsant effectiveness was determined by using an electroconvulsive seizure model as described elsewhere [White et al., 1995]. Mice had free access to food and water and were housed in a temperature and light-controlled environment (12 h on/12 h off) prior to drug administration. Electroshock in mice was delivered using corneal electrodes with varied electroshock intensity. Current was delivered (60 Hz sinusoidal current, 11 to 17 mA baseline to peak vs. 50 mA for 0.2 s) using a constant-current stimulator (Wahlquist Instruments, Salt Lake City, Utah). The intensities of current necessary to produce tonic extensor seizures for each mouse strain and mutant lines in all of the mice were determined. These currents were then used for further testing of mice with pregabalin. All dose-response testing was conducted at the previously determined time of peak drug effect. Groups of 10 mice each were give various intraperitoneal doses of pregabalin dissolved in 0.9% saline, diazepam (veh) or phenyloin and given in a volume of 10 ml/kg of body weight. ED50 values (calculated dose required to inhibit the hindlimb tonic-extensor component of the maximal electroshock seizure in 50% of the animals tested) were determined by probit analysis [Litchfield, Wilcoxon], and used to compare relative potency between compounds. At least four groups of mice and each animal was employed once. The animals, pretreated with different doses of the tested drugs, were challenged with one electroshock at previously determined times of peak drug effect (pregabalin: 120 min; diazepam: 60 min; phenyloin; 60 min).\nAnticonvulsant effects of pregabalin were reduced in −/− mice as compared to the +/+mice."}, "α2/δ2": {"target": "α2/δ2 (Homo sapiens, UniProt Q9NY47)", "sequence (Q9NY47 19-1150)": "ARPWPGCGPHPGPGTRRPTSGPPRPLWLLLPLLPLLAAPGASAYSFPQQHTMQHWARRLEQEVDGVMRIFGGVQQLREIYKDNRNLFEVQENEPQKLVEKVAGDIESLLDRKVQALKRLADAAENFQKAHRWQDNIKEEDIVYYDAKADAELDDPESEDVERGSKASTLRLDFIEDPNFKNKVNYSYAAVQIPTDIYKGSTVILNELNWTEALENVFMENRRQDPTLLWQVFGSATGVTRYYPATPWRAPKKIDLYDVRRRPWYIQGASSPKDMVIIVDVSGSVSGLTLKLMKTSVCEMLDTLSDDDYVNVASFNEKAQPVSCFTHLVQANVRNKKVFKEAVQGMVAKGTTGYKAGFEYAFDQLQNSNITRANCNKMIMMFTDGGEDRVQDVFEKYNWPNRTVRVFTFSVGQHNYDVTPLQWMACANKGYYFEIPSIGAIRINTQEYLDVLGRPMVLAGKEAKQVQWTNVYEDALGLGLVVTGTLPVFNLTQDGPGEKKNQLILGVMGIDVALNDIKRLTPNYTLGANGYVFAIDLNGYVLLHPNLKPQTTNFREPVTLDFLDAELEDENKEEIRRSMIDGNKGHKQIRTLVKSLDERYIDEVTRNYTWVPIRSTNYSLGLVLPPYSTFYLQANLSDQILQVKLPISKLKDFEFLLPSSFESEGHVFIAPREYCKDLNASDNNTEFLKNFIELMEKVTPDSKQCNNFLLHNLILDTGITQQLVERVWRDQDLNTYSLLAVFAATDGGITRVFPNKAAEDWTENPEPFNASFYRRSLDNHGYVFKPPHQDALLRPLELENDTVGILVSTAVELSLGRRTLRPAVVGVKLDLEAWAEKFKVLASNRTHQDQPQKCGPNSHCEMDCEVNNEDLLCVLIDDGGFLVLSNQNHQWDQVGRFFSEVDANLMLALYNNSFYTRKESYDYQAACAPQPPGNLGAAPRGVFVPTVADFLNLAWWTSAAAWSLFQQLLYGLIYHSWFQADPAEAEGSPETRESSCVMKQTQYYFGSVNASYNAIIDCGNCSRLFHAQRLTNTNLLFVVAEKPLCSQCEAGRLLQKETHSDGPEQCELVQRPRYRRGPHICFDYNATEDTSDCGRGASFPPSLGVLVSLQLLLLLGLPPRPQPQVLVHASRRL", "sequence (Q9NY47 1002-1150 partner limits assumed)": "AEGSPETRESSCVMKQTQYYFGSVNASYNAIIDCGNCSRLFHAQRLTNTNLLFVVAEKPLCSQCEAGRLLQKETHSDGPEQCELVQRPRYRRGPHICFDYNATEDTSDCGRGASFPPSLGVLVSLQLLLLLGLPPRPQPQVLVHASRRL", "conditions": "background statement; cited from earlier work"}, "[2]": {"system": "brain membranes from the R217A mutant mouse", "experiment": "3H gabapentin binding to mouse brain membranes", "conditions": "R217A mutant mouse in comparison to wildtype mice; tracer 3H gabapentin; FIG. 3", "experimental": "Membranes were prepared from whole mouse brains. […] Total binding was determined in the absence of competitor. Non-specific binding was determined in the presence of 10 μM unlabeled pregabalin."}, "[3]": {"system": "R217A WT, HET and KI mice and parent strains", "experiment": "Vogel water-lick conflict", "assay_type": "in vivo, mouse", "conditions": "for anxiolytic-like effect: R217A knockins", "description": "Albino or C57BL/6J-Tyr were also included in the experiments for comparison purposes. Male C57BL/6J (Jackson Laboratories), and 129S6/SvEV (Taconic Farms) mice were received at 8 weeks old in quantities sufficient for each study to be completed in one experiment. Parent strains were housed one week prior to testing.\nOn the side of each chamber (1.5 in. above the floor) a module optical lickometer was mounted. The lickometer was used to measure licking from a drink tube attached to a water bottle mounted on the exterior of the chamber. A photo beam was piped via glass rods across a gap at the end of the drink tube. The subject's tongue breaks the beam when it drinks from the tube and each lick was automatically recorded. […] The reduced chamber space limited the animal's activity and directed behavior towards the drink tube during a 10-minute session. The front and back of the test chamber was made of clear Plexiglas. The front door was covered to reduce distractions from inside the test room. The back of the test chamber faced a wall, away from the flow of traffic in the testing room, and remained uncovered to provide the opportunity for observations. Shock was delivered between the grid floor and the drink tube using a (Coulbourn) programmable universal shocker for a duration of one second, but terminated immediately when contact between the animal and drink tube was broken.\nPROCEDURE: On day one, after 24 hours of water deprivation, experimental subjects were placed in the test chambers and allowed to drink unpunished for a 10-minute training session. Mice were required to complete a 100-150 lick criteria during the training session. […] Immediately after the day one session mice were returned to their home cages and deprived of water and food for an additional 24 hours. On test day two, mice were dosed by intraperitoneal (IP) injection with vehicle or test compound. After a 60 or 120-minute absorption period mice were placed into the test chambers for a 10-minute test session. During the test, shock was delivered on a fixed ratio (FR) 10 schedule. Therefore, after every 10th lick the subject received a mild shock. […] A low number of shock episodes accepted reflects anxiety-related behavior. Standard anxiolytic drugs produce effects that allow mice to overcome the behavioral inhibition and drink despite the shock. […] All data were analyzed using a one-way ANOVA/Dunn's Method.\nDRUGS: Pregabalin was dissolved in physiological saline for all experiments. The positive control diazepam was suspended in 2% cremophor in physiological saline.\nC57BL/6J mice were tested at 0.4 mA, C57BL/6J-Tyr mice were tested at 0.1 mA and 129S6/SvEV mice were tested at 0.6 mA. […]"}, "[4]": {"system": "α2/δ1 R217A wild type, heterozygous, and homozygous mice", "experiment": "Formalin foot-pad procedure (formalin-induced hyperalgesia)", "assay_type": "in vivo, mouse", "conditions": "mice with arg 217 changed to alanine versus heterozygous and wildtype; PO, 120 minutes prior to testing; FIG. 4", "protocol": "Male α2/δ1 R217A wild type, heterozygous, and homozygous mice, weighing 1940 grams, were used for testing. Animals were maintained on a 12 hour light/dark cycle with food and water available ad libitum. Animals were food deprived overnight the day before testing. On test day, animals were acclimated to the observation chambers for approximately 60 min. The observation chambers were eight inch square boxes consisting of solid, acrylic plastic mirrors for the floor and 3 walls. The fourth wall was clear acrylic that allowed for observation. Animals were dosed PO with either vehicle or pregabalin, 120 minutes prior to testing at a dose volume 10 mL/kg. At test time, animals received a 25 μL injection of a 5% formalin solution in water in the plantar surface of the left hind foot. […] These behaviors were timed using a hand-held stopwatch and recorded at 5 min intervals. Data was analyzed by the two distinct phases of responding. Early phase responding included Minutes 0-10, and late phase responding included Minutes 1145. The total time spent licking by drug-treated animals in each phase was compared to the total time spent licking by vehicle-treated animals.\nFIG. 4 depicts formalin-induced hyperalgesia in R217A mutant homozygous mice in comparison to that of heterozygous and wildtype mice."}, "[5]": {"system": "R217A knock-in and wild-type mice", "experiment": "Chronic constriction injury (CCI)-induced static allodynia, von Frey hairs", "assay_type": "in vivo, mouse", "conditions": "sub cutaneous 30-100 mg/kg, FIG. 8", "description": "Animals were placed in an anaesthetic chamber and anaesthetised with a 2% isofluorane O2 mixture. The right hind thigh is shaved and swabbed with 1% iodine. Animals were then transferred to a homeothermic blanket for the duration of the procedure and anaesthesia maintained during surgery via a nose cone. The skin was cut along the line of the thigh bone. The common sciatic nerve was exposed at the middle of the thigh by blunt dissection through biceps femoris. Proximal to the sciatic trifurcation, about 5 mm of nerve was freed by inserting forceps under the nerve and the nerve gently lifted out of the thigh. The forceps were gently opened and closed several times to aid clearance of the fascia from the nerve. […]\nAnimals were habituated to wire test cages prior to the assessment of allodynia. Static allodynia was evaluated by application of von Frey hairs (Stoelting, Wood Dale, Ill., U.S.A.) in ascending order of force ([…], 0.4, 0.6, 1.0, 1.5 and 2.0 g) to the plantar surface of hind paws. […] The lowest amount of force required to elicit a response was recorded as paw withdrawal threshold (PWT) in grams. […]\nBaseline (BL) paw withdrawal thresholds (PWT) to von Frey hairs were assessed. Following drug administration PWT were re-assessed for up to 4 h. […]"}, "[6]": {"system": "α2/δ1 R217A wild type and homozygous mice", "experiment": "Tail Suspension Test (TST)", "assay_type": "in vivo, mouse", "conditions": "R217A homozygous mutant versus wildtype mice; dosed 120 minutes prior to testing; FIG. 5", "protocol": "Male α2/δ1 R217A wild type and homozygous mice, weighing 22-35 grams, were used for testing. Animals were maintained on a 12 hour light/dark cycle with food and water available ad libitum. Animals were food deprived overnight the day before testing. On test day, animals were placed by groups of 8 into holding cages to acclimate for sixty minutes prior to dosing. Vehicle or pregabalin was administered 120 minutes prior to testing at a dose volume of 10 mL/kg. At test time, a piece of transparent tape was placed around the distal portion of the tail. The tape was then attached to a hook connected to an electro-mechanical apparatus that recorded the amount of time a mouse moved and the force used during movement. The hook was located at the top of a 24×18 cm testing chamber. Animals were completely suspended in air approximately 5 cm off the floor of the chamber for six minutes. Mean time of struggling and force of movement were then calculated for each group of eight.\nAnimals are placed by groups of eight into holding cages to acclimate for thirty to sixty minutes prior to dosing. Treatments are generally administered 60 to 120 minutes prior to testing, although this also varies with specific compounds. At test time, a piece of scotch tape is placed around the distal portion of the tail. […]"}}}
{"smiles": "O=C1NC(=O)C(c2ccccc2)(c2ccccc2)N1", "note": "[phenyloin]", "values": [{"measurement": "responsiveness to anticonvulsant effects", "setting": "[1]; FIG. 9", "value": "fully responsive"}]}
{"smiles": "NCC1(CC(=O)O)CCCCC1", "note": "[gabapentin, 1-(aminomethyl)cyclohexaneacetic acid]", "values": [{"measurement": "binding affinity", "setting": "α2/δ2", "value": "high affinity"}, {"measurement": "gabapentin binding to brain membranes", "setting": "[2]", "value": "reduced, or greatly abolished"}]}
{"smiles": "CN1C(=O)CN=C(c2ccccc2)c2cc(Cl)ccc21", "note": "[diazepam]", "values": [{"measurement": "responsiveness to anticonvulsant effects", "setting": "[1]; FIG. 9", "value": "fully responsive"}, {"measurement": "anxiolytic-like effect", "setting": "[3]", "value": "Diazepam (+control) failed to produce an anxiolytic-like effect in R217A knockins. Data suggests 129S6-parent strain's genotype may be responsible for pharmacological profile of diazepam"}]}
{"smiles": "CC(C)C[C@H](CN)CC(=O)O", "note": "[pregabalin]", "values": [{"measurement": "efficacy in formalin-induced hyperalgesia (licking or biting of injected foot)", "setting": "[4]", "value": "reduced efficacy"}, {"measurement": "effect on CCI-induced punctate allodynia (paw withdrawal threshold)", "setting": "[5]; knock-in mice", "value": "no effect"}, {"measurement": "blockade of CCI-induced punctate allodynia (paw withdrawal threshold)", "setting": "[5]; wild type mice", "value": "significant blockade"}, {"measurement": "potency in protecting against seizures", "setting": "[1]; mutant mice versus wild-type, heterozygous or back-ground strains", "value": "less potent"}, {"measurement": "anticonvulsant effects", "setting": "[1]; −/− mice as compared to +/+ mice, FIG. 9", "value": "reduced"}, {"measurement": "sensitivity to effects in MES", "setting": "[1]; −/− mice versus +/+ mice, FIG. 9", "value": "less sensitive"}, {"measurement": "increase @ 100 (punished responding)", "setting": "[3]; Knockins, shock 0.7 mA, dose 100 (mg/kg IP)", "value": "non-significant"}, {"measurement": "anxiolytic-like effect", "setting": "[3]", "value": "Pregabalin did not produce a significant anxiolytic-like effect in R217A knockins, and no evidence was obtained relating phenotype to particular parent strain"}, {"measurement": "increase in punished licking", "setting": "[3]; knock-in mice homozygous for R217A, compared to wild-type, heterozygous or back-ground strains", "value": "does not produce a statistically significant increase"}, {"measurement": "sedative and/or anxiolytic effect in TST", "setting": "[6]", "value": "exerts its sedative and/or anxiolytic effect in TST through the α2/δ1 polypeptide"}]}
